Test results published in paper PMC8279416, “Structural Fine-Tuning of Desmuramylpeptide NOD2 Agonists Defines Their In Vivo Adjuvant Activity” (Journal of Medicinal Chemistry, 2021).

Experiments:
[1] = system: K562 chronic myelogenous leukemia cells; experiment: PBMC cytotoxicity assay against K562 cells (flow cytometry); assay type: cell-based
Protocol: (§1) In the present study, we examined these desmuramylpeptides in terms of potentiation of the cytotoxic activity of the PBMCs against cancer cells. To this end, we used a previously described flow-cytometry-based cytotoxicity assay where PBMCs are co-incubated with fluorescently labeled cancer cells.[89] As indicated above, the NOD2-mediated NK cell activity originates from both the direct effects of NOD2 agonists on NK cells and the indirect activation through cytokine release by other NOD2-responsive cells, including monocytes. Thus, we used the whole PBMC population as the effector cells, rather than isolated NK cells, to provide conditions that would be closer to the in vivo environment, wherein the immune responses can be reinforced by interactions between the distinct immune cell subpopulations. Two malignant cell lines were used as the target cells in a 40:1 effector to target cell ratio: MEC1 B-chronic lymphocytic leukemia cells, and K562 chronic myelogenous leukemia cells. The K562 cells are considered a “classic” NK cell target, as they lack the expression of major histocompatibility complex (MHC) class I that is required for NK cell inhibition.[90]
(§2) The PBMC cytotoxicity assays using K562 and MEC1 cells were performed as described previously, with some modifications.[89] PBMCs were seeded (4 × 10^5 cells/well) in 96-well plates and treated with compounds (0.1–10 μM) or vehicle (0.1% DMSO) for 18 h. The K562 or MEC1 cells were stained with CFSE (Invitrogen, Carlsbad, CA, U.S.A.), washed twice with complete medium, and added (1 × 10^4 cells/well) to pretreated PBMCs for a final effector cell to target tumor cell ratio of 40:1. After a 4 h co-incubation (37 °C, 5% CO2), cells were stained with Sytox blue dead cell stain (Invitrogen) and analyzed using an Attune NxT flow cytometer (Thermo Fisher Scientific, Waltham, MA, U.S.A.) and the FlowJo software (Tree Star, Inc., Ashland, OR, U.S.A.). Cells that were positive for both CFSE and Sytox blue were defined as dead K562 and MEC1 cells. PBMCs alone and the CFSE-labeled cancer cells alone were also treated with the compounds at the same concentrations and stained with Sytox blue to determine any direct cytotoxicity of the compounds toward the PBMCs and cancer cells. The experiments were run in duplicate and repeated as three independent biological replicates. Statistical significance was determined by one-way ANOVA followed with Dunnett’s multiple comparisons test.

[2] = system: MEC1 B-chronic lymphocytic leukemia cells; experiment: PBMC cytotoxicity assay against MEC1 cells (flow cytometry); assay type: cell-based
Protocol: as §1
as §2, with “Cells that were positive for both CFSE and Sytox blue were defined as dead K562 and MEC1 cells. PBMCs alone and the CFSE-labeled cancer cells alone were also treated with the compounds at the same concentrations and stained with Sytox blue to determine any direct cytotoxicity of the compounds toward the PBMCs and cancer cells. The experiments were run in duplicate and repeated as three independent biological replicates.” left out

[3] = molecular target: T1, NOD2 (Homo sapiens, UniProt Q9HC29); experiment: HEK-Blue NOD2 cell line reporter assay (NF-κB-inducible SEAP); assay type: cell-based; conditions: for EC50 / NOD2 activity at 2 μM (fold increase): HEK-Blue NOD2 cells; for NOD2 activity at 2 μM (fold increase): NF-κB transcriptional (SEAP) activity relative to 0.1% DMSO
T1 construct: host or cells: HEK-Blue NOD2 cells (HEK293-derived)

[4] = system: CD4+ T cells (OT II) cocultured with BMDCs; experiment: BMDC antigen presentation assay with ovalbumin-specific CD4+ T cells; assay type: cell-based, mouse; conditions: ovalbumin 50 μg/mL, 72 h coculture
Protocol: To evaluate the adjuvant potential of the two most-promising desmuramylpeptides, 68 and 75, in terms of their effects on DC-mediated activation of CD4^+ and CD8^+ T cells, we used an in vitro antigen-presentation assay with C57BL/6 mouse bone-marrow-derived DCs (BMDCs). Following stimulation with 68 and 75 (1 or 10 μM) in the presence of ovalbumin soluble protein (50 μg/mL), BMDCs were cocultured with carboxyfluorescein succinimidyl ester (CFSE)-labeled naive ovalbumin-specific CD4^+ or CD8^+ T cells, which were isolated from splenocytes of OT II and OT I transgenic mice, respectively. After 3 days of coculture, CD25 (α subunit of IL-2 receptor)[108] expression was determined, along with the CFSE dilution, as markers of T-cell activation and proliferation, respectively. Furthermore, we also examined how this desmuramylpeptide-induced priming of T cells affected the secreted cytokine profiles in BMDC/T-cell cocultures.
CD4^+ and CD8^+ T cells were purified from splenocytes of OT II and OT I transgenic mice using CD4^+ and CD8^+ T cell isolation kits (Miltenyi Biotec, Germany), according to manufacturer instructions. Purified T cells were stained with CFSE (Invitrogen, Carlsbad, CA, U.S.A.) and washed. Then, 5 × 10^4 T cells were mixed with 1 × 10^4 BMDCs per well (pretreated with desmuramylpeptides [1 or 10 μM] and 50 μg/mL ovalbumin [InvivoGen, San Diego, CA, U.S.A.] for 18 h, and then washed). […] The cells were stained with Fixable viability dye eFluor 780 (eBioscience, Thermo Fisher Scientific, MA, U.S.A.), anti-Thy1.2-PE-Cy7 antibodies (Biolegend, San Diego, CA, U.S.A.), anti-CD8-eFluor450 antibodies (eBioscience), anti-CD4-eFluor450 antibodies (eBioscience), and anti-CD25-APC antibodies (Biolegend) and analyzed using a Beckman Coulter Cytoflex S flow cytometer (CA, U.S.A.) and FlowJo software (Tree Star, Inc., Ashland, OR, U.S.A.). Live Thy1.2^+/CD4^+ and Thy1.2^+/CD8^+ were evaluated for CFSE dilution and CD25 expression. […] Statistical significance was determined by one-way ANOVA followed by Dunnett’s multiple comparisons test.

[5] = 10 μM, 18 h pretreatment, 4 h co-incubation, 40:1
[6] = 18 h, 7 or 8 concentrations 1 nM to 20 μM, mean ± SEM
[7] = 10 μM, CD25 expression and CFSE dilution

T1 sequence (Q9HC29 whole entry): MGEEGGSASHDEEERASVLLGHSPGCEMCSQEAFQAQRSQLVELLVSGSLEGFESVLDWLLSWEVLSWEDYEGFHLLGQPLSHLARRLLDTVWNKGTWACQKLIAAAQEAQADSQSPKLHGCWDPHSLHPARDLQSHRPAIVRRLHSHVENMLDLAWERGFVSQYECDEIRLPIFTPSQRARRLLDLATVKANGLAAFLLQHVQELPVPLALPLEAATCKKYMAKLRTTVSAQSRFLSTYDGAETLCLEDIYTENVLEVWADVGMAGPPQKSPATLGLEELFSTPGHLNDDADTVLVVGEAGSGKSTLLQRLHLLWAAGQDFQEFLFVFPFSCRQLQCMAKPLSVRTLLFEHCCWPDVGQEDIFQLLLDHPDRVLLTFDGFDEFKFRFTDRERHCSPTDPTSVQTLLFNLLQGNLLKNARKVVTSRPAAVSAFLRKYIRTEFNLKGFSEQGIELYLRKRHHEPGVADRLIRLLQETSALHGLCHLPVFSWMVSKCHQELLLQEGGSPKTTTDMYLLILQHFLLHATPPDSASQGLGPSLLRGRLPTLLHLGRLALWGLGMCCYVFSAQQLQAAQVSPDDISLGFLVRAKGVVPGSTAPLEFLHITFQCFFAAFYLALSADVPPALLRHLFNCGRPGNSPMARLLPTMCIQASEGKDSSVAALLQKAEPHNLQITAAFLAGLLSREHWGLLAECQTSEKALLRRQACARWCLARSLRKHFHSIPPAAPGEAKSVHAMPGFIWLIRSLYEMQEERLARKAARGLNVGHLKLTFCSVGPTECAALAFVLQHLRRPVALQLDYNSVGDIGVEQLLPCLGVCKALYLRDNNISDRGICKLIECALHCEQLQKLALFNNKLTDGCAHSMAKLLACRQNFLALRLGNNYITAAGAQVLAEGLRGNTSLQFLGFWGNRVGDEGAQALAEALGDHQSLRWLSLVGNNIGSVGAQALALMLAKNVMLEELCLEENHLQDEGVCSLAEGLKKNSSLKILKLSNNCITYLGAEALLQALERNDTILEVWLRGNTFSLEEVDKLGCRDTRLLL

Row | SMILES | Boost to the cytotoxicity of PBMCs against K562 cells [1, 5] | Boost to the cytotoxicity of PBMCs against MEC1 cells [2, 5] | EC50 [3] | NOD2 activity at 2 μM (fold increase) ([3]; 18 h, mean ± SEM) | EC50 [3, 6] | Improvement in potency over 32 ([3]; ratio of EC50 versus compound 32) | BMDC-mediated CD4+ T-cell activation and proliferation ([4]; 1 μM) | BMDC-mediated CD4+ T-cell activation and proliferation [4, 7] | Boost to the cytotoxicity of PBMCs against K562 cells ([1]; 100 nM) | Boost to the cytotoxicity of PBMCs against K562 cells ([1]; 1 μM) | Boost to the cytotoxicity of PBMCs against MEC1 cells ([2]; 100 nM) | Diminished activity by a factor, relative to 74 ([3]; ratio of EC50 versus compound 74)
1 | CCCCCCCCCCCCCCCCCC(=O)Oc1ccc(/C=C/C(=O)NCC(=O)N[C@H](C(=O)N[C@H](CCC(=O)OCC)C(=O)OCC)[C@@H](C)O)cc1OC [Compound 81, Diethyl ((E)-3-(3-Methoxy-4-(stearoyloxy)phenyl)acryloyl)glycyl-L-threonyl-D-glutamate] | devoid of activity | devoid of activity | 1450 nM | 1.96 ± 0.01 fold increase | 1450 ± 150 nM | 10 fold | – | – | – | – | – | –
2 | COc1cc(/C=C/C(=O)NCC(=O)N[C@H](C(=O)N[C@H](CCC(=O)OC2CCCC2)C(=O)OC2CCCC2)C(C)C)ccc1O [Compound 68, Dicyclopentyl ((E)-3-(4-Hydroxy-3-methoxyphenyl)acryloyl)glycyl-L-valyl-D-glutamate] | – | – | – | – | – | – | also showed this effect | significantly enhanced | – | – | – | –
3 | CCCCCCCCCCCCCCCCCC(=O)Oc1ccc(/C=C/C(=O)NCC(=O)N[C@H](C(=O)N[C@H](CCC(=O)OCC)C(=O)OCC)C(C)C)cc1OC [Compound 75, Diethyl ((E)-3-(3-Methoxy-4-(stearoyloxy)phenyl)acryloyl)glycyl-L-valyl-D-glutamate] | significant boost | significant boost | 2830 nM | 2.37 ± 0.01 fold increase | 2830 ± 206 nM | – | – | significantly enhanced | no effects were seen against either cell line | still significant | no effects were seen against either cell line | 90
